# Reference: patent US11266655B2, “Methods and compositions for treating urea cycle disorders” (Camp4 Therapeutics Corporation, priority 2019, dated 2022)
# What was measured:
# SLC25A15 = test: RNA-seq of compound-treated primary human hepatocytes, SLC25A15 expression; assay type: cell-based; details: for Relative SLC25A15 level vs Untreated (±Standard Deviation): primary human hepatocytes, triplicate (Table 24, FIG. 16A-B)
# OTC [1] = test: OTC expression modulated by compounds, OTC/GeoMean of housekeeping genes, DMSO = 1 (Table 3A); assay type: cell-based, human; details: 10 uM final concentration
# OTC [2] = test: JAK1 inhibitor dose titration in hepatocytes of donors A and B, OTC mRNA normalized to B2M; assay type: cell-based, human; details: for OTC mRNA FC, Donor A / OTC mRNA FC, Donor B: normalized to B2M
# Method: (§1) Next, two JAK1 inhibitors were tested at increasing concentrations in a dose titration assy. Hepatocytes from two different donors (A and B) were incubated with the various concentrations of upadacitinib or oclacitinib maleate and harvested for mRNA analysis. OTC and CPS1 mRNA were normalized to house keeping gene B2M gene expression.
# CPS1 [3] = test: JAK inhibitors at 0.3 and 3 μM in primary human hepatocytes, CPS1 mRNA fold change; assay type: cell-based; details: fold change vs DMSO
# Method: (§2) Additional small molecules that inhibit JAK1, JAK2, JAK3, or a combination of the JAK proteins were tested in primary human hepatocytes as described in Example 2. JAK inhibitors were tested in triplicate at 0.3 μM and 3 μM. The results are shown as the fold change (mRNA FC) in the mRNA levels of OTC and CPS1 genes after treatment compared to an untreated control (DMSO) and the standard deviation (SD).
# OTC [4] = test: JAK inhibitors at 0.3 and 3 μM in primary human hepatocytes, OTC mRNA fold change; assay type: cell-based; details: fold change vs DMSO
# Method: as §2
# CPS1 [5] = test: JAK1 inhibitor dose titration in hepatocytes of donors A and B, CPS1 mRNA normalized to B2M; assay type: cell-based, human; details: for CPS1 mRNA FC, Donor A / CPS1 mRNA FC, Donor B: normalized to B2M
# Method: as §1
# [6] = test system: chromatin domain upstream of the OTC gene; test: ATAC-seq of the OTC insulated neighborhood in inhibitor-treated hepatocytes; details: 17 hours of inhibitor treatment
# Method: Hepatocytes were seeded overnight, then the serum and other factors were removed. After 2-3 hours, the cells were treated with the compound and incubated overnight. The cells were harvested and the nuclei were prepared for the transposition reaction. […] After 9-12 cycles of PCR amplification, libraries were sequenced on an Illumina HiSeq 2000. PCR was performed using barcoded primers with extension at 72° C. for 5 minutes, PCR, then the final PCR product was sequenced.
# All obtained reads from each sample were trimmed using trim galore 0.4.1 requiring Phred score ≥20 and read length ≥30 for data analysis. The trimmed reads were mapped against the human genome (hg19 build) using Bowtie2 (version 2.2.9) with the parameters: -t -q -N 1 -L 25 -X 2000 no-mixed no-discordant. All unmapped reads, non-uniquely mapped reads and PCR duplicates were removed. All the ATAC-seq peaks were called using MACS2 with the parameters --nolambda -nomodel -q 0.01 --SPMR. The ATAC-seq signal was visualized in the UCSC genome browser. ATAC-seq peaks that were at least 2 kb away from annotated promoters (RefSeq, Ensemble and UCSC Known Gene databases combined) were selected as distal ATAC-seq peaks.
# The ATAC-seq experiment was done in triplicate.
# NAGS = assay type: cell-based, human
# urea cycle genes = test: RNA-seq of primary human hepatocytes, compounds that modulate multiple urea cycle-related genes; assay type: cell-based
# CPS1 [7] = test: RNA-seq of compound-treated primary human hepatocytes, CPS1 expression; assay type: cell-based
# ASL = test: RNA-seq of compound-treated primary human hepatocytes, ASL expression; assay type: cell-based
# ARG1 = test: RNA-seq of compound-treated primary human hepatocytes, ARG1 expression; assay type: cell-based
# ASS1 = test: RNA-seq of compound-treated primary human hepatocytes, ASS1 expression; assay type: cell-based
# [8] = both donor cell lines (A and B)
compound,measurement,setting,value
Cl.Cn1c(=O)c(Oc2ccc(F)cc2F)cc2cnc(NC3CCOCC3)nc21 [R1487 Hydrochloride],Relative SLC25A15 level vs Untreated (±Standard Deviation),SLC25A15; 1 μM,1.56 ± 0.16
same,Relative SLC25A15 level vs Untreated (±Standard Deviation),SLC25A15; 10 μM,1.51 ± 0.09
same,Max Value (OTC/GeoMean of HKs; DMSO = 1),OTC [1],1.64
oclacitinib maleate,"OTC mRNA FC, Donor A",OTC [2]; 0.1 uM,1.97
same,"OTC mRNA FC, Donor B",OTC [2]; 0.1 uM,2.46
same,"OTC mRNA FC, Donor A",OTC [2]; 0.3 uM,2.76
same,"OTC mRNA FC, Donor B",OTC [2]; 0.3 uM,4.28
same,"OTC mRNA FC, Donor A",OTC [2]; 1 uM,4.79
same,"OTC mRNA FC, Donor B",OTC [2]; 1 uM,5.97
same,"OTC mRNA FC, Donor A",OTC [2]; 3 uM,8.92
same,"OTC mRNA FC, Donor B",OTC [2]; 3 uM,11.00
same,"OTC mRNA FC, Donor A",OTC [2]; 10 uM,11.65
same,"OTC mRNA FC, Donor B",OTC [2]; 10 uM,11.46
same,"OTC mRNA expression, dose titration",OTC [2]; [8],dose dependent increase
same,CPS1 mRNA FC,CPS1 [3]; 0.3 uM,1
same,CPS1 mRNA FC,CPS1 [3]; 3 uM,1.69
same,OTC mRNA FC,OTC [4]; 0.3 uM,1.32
same,OTC mRNA FC,OTC [4]; 3 uM,3.14
same,"CPS1 mRNA FC, Donor A",CPS1 [5]; 0.1 uM,1.61
same,"CPS1 mRNA FC, Donor B",CPS1 [5]; 0.1 uM,4.60
same,"CPS1 mRNA FC, Donor A",CPS1 [5]; 0.3 uM,2.37
same,"CPS1 mRNA FC, Donor B",CPS1 [5]; 0.3 uM,4.50
same,"CPS1 mRNA FC, Donor A",CPS1 [5]; 1 uM,3.12
same,"CPS1 mRNA FC, Donor B",CPS1 [5]; 1 uM,3.34
same,"CPS1 mRNA FC, Donor A",CPS1 [5]; 3 uM,4.82
same,"CPS1 mRNA FC, Donor B",CPS1 [5]; 3 uM,2.57
same,"CPS1 mRNA FC, Donor A",CPS1 [5]; 10 uM,5.99
same,"CPS1 mRNA FC, Donor B",CPS1 [5]; 10 uM,1.90
same,"CPS1 mRNA expression, dose titration",CPS1 [5]; [8],dose dependent increase
same,newly accessible chromatin domain upstream of the OTC gene (ATAC-seq),[6],newly accessible chromatin domain
COc1cc2c(cc1OC)CN(C(=O)/C=C/c1c(-c3ccccc3)n(C)c3ncccc13)CC2 [SIS3],Max Value (OTC/GeoMean of HKs; DMSO = 1),OTC [1],1.46
same,"Fold change (Log 2) vs untreated, NAGS expression",NAGS,0.64 Log 2
CNC[C@H](O)c1ccc(O)c(O)c1 [Epinephrine],Up-regulated Genes,urea cycle genes,"CPS1, ASS1, ASL, ARG1, SLC25A15"
same,number of urea cycle genes whose expression was significantly up-regulated,urea cycle genes,five
same,"Fold change (Log 2) vs untreated, SLC25A15 expression",SLC25A15,1.14 Log 2
same,"CPS1 expression, Fold change (Log 2) vs untreated",CPS1 [7],4.85 Log 2
same,"ASL expression, Fold change (Log 2) vs untreated",ASL,0.6 Log 2
same,"Fold change (Log 2) vs untreated, ARG1 expression",ARG1,2.28 Log 2
same,"Fold change (Log 2) vs untreated, ASS1 expression",ASS1,1.08 Log 2
Cc1cc(Nc2nc(N[C@@H](C)c3ncc(F)cn3)ncc2Cl)[nH]n1 [AZD1480],CPS1 mRNA FC,CPS1 [3]; 0.3 uM,1.1
same,CPS1 mRNA FC,CPS1 [3]; 3 uM,1.77
same,OTC mRNA FC,OTC [4]; 0.3 uM,1.63
same,OTC mRNA FC,OTC [4]; 3 uM,2.3
same,Max Value (OTC/GeoMean of HKs; DMSO = 1),OTC [1],1.46
